Laboratory results reported in paper PMC12051620, “Molecular basis underlying the specificity of an antagonist AA92593 for mammalian melanopsins” (The Journal of Biological Chemistry, 2025).

Molecular target: T1, human melanopsin WT (Homo sapiens, UniProt Q9UHM6)
T1 construct: expressed in transfected cells; host or cells: COS-1
T1 sequence (Q9UHM6 1-384 limits assumed): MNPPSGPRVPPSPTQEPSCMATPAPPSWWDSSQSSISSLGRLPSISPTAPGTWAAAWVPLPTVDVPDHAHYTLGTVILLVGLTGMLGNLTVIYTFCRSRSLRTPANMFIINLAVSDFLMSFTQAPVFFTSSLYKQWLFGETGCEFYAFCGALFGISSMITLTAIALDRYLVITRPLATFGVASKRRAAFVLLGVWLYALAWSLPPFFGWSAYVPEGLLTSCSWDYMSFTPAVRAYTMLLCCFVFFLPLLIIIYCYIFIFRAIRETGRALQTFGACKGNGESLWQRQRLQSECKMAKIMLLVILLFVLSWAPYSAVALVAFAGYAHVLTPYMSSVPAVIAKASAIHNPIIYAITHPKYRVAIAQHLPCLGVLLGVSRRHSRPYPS
Assay: GsX GloSensor assay with Gsα/q11 (light-induced cAMP response)
Format: cell-based
Settings: COS-1 cells
Source text: To quantify the antagonistic effects of AA92593 on mammalian melanopsins, we used the GsX GloSensor assay ([12], [13], [14]). This assay measures GPCR-induced increases in intracellular cAMP levels even for Gq-, Gi/o-, or G12-coupled receptors by using Gsα chimeras ([12], [13], [14]). Because melanopsin is primarily coupled with Gq-type G proteins, a Gsα mutant with 11 C-terminal sequence of Gqα (Gsα/q11) was expressed in COS-1 cells with melanopsin and a luciferase-based cAMP biosensor (see “Experimental procedures”) ([15]). This assay enables the measurement of Gq activation by melanopsin as cAMP production (an increase in luminescence). In this study, we used C-terminal–truncated melanopsin constructs to increase the expression levels with minimal compromise in functionality ([9], [16], [17], [18], [19]). […] In addition, the C-terminal region is located far from the binding site of AA92593 (see below). Hereafter, the C-terminal–truncated melanopsin constructs are named as “WT.”
In the constructs for melanopsin expression (opsin name - GenBank ID: human melanopsin - NM_033282.4, mouse melanopsin - NM_013887.2, Xenopus Opn4x - NM_001085674.1, chicken opn4-1 - NM_001397961.1, B. belcheri melanopsin - AB205400.1, and B. lanceolatum melanopsin - MF464477.1), the C-terminal amino acid residues (94, 140, 200, 214, 296, and 308 residues for human ([9]), mouse ([9]), Xenopus, chicken, belcheri ([16]), and lanceolatum melanopsins, respectively) were removed, the 1D4 tag sequence (ETSQVAPA) was added, and inserted into the EcoRI/NotI site in a mammalian expression vector pMT. Jumping spider rhodopsin-1 (GenBank ID: AB251846.1) was also added with the 1D4 tag and inserted into pMT vector. Human and mouse melanopsins, and jumping spider rhodopsin-1 in pCDNA3.1 were kindly provided from Drs. Akihisa Terakita and Mitsumasa Koyanagi (Osaka Metropolitan University). In this paper, each opsin with the C-terminal sequence modifications as described above is denoted “WT.” Bovine Gsα and its mutants Gsα/q11 and Gsα/i11 (C-terminal 11 residues are replaced with Gqα and Giα, respectively) were also inserted into the pMT vector. The GFP-tagged melanopsin constructs, in which EGFP protein fused with C-termini of melanopsins, were prepared as previously described ([9], [50]). […]
For GloSensor assay, opsins, GloSensor assay sensor (coded by pGlo-22F), and NanoBiT-tagged G proteins were transiently expressed in COS-1 cells (kindly provided from Dr David Farrens, Oregon Health and Science University) using PEI as described previously ([24], [52]). […] For GFP-fluorescence microscopy, a 35-mm cell culture dish (IWAKI) was transfected with 2 μg melanopsin-GFP plasmid and 8 μg PEI in 400 μl Opti-mem and 1.2 ml D-MEM. […]

[1] = relative peak cAMP response vs no AA92593

## COc1ccc(S(=O)(=O)N2CCCCC2)cc1C [AA92593]
  Hill fitting parameter rate of dose-response curve: −0.92 ± 0.21
0.1 μM 9-cis-retinal, white light 10 s, n = 3, read-out: IC50, reduction in peak cAMP responses upon Gsα/q11 activation
  IC50: 1050 ± 280 nM
[1]
  Hill fitting parameter max of dose-response curve: 102.59 ± 2.72
  Hill fitting parameter min of dose-response curve: 13.65 ± 7.28
